Tests used:
[1] = tested on: IL-13 induced pSTAT6 in lung tissue; test: Assay 9: Murine model of IL-13 induced pSTAT6 induction in lung tissue; format: in vivo, balb/c mice; conditions: mouse, 0.5 mg/mL 50 μL oral aspiration; after IL-13 challenge (so in the source)
Procedure: 11-13 is an important cytokine underlying the pathophysiology of asthma (Kudlacz et al. Eur. J. Pharmacol, 2008, 582,154-161). IL-13 binds to cell surface receptors activating members of the Janus family of kinases (JAK) which then phosphorylate STAT6 and subsequently activates further transcription pathways. In the described model, a dose of IL-13 was delivered locally into the lungs of mice to induce the phosphorylation of STAT6 (pSTAT6) which is then measured as the endpoint.
Adult balb/c mice from Harlan were used in the assay. On the day of study, animals were lightly anesthetized with isoflurane and administered either vehicle or test compound (0.5 mg/mL, 50 μL total volume over several breaths) via oral aspiration. Animals were placed in lateral recumbency post dose and monitored for full recovery from anesthesia before being returned to their home cage. Four hours later, animals were once again briefly anesthetized and challenged with either vehicle or IL-13 (0.03 μg total dose delivered, 50 μL total volume) via oral aspiration before being monitored for recovery from anesthesia and returned to their home cage. […] using an anti-pSTAT6 ELISA (rabbit mAb capture/coating antibody; mouse mAb detection/report antibody: anti-pSTAT6-pY641; secondary antibody: anti-mouse IgG-HRP) and analyzed for total drug concentration as described above in Assay 12. […]

[2] = tested on: IL-27 induced CXCL10 secretion in EpiAirway tissue cultures; test: Assay 15: IL-27 induced CXCL10 in human 3D airway cultures; format: cell-based; conditions: 192 h, Day 8, average from 3 or 4 donors, read-out: % inhibition of IL-27 induced CXCL10 secretion (±STDV)
Procedure: EpiAirway tissue cultures were obtained from Mattek (AIR-100). Cultures were derived from asthmatic donors. In a cell culture insert, human derived tracheal/bronchial epithelial cells were grown and differentiated on a porous membrane support, allowing an air-liquid interface with warmed culture medium below the cells and a gaseous test atmosphere above. Tissues were cultured in maintenance media (Mattek, AIR-100-MM) in a 37° C., 5% CO2 humidified incubator. Four donors were tested. On Day 0, tissue cultures were treated with test compounds at 10 μM, 1 μM and/or 0.1 μM. Compounds were diluted in dimethyl sulfoxide (DMSO, Sigma) to a final concentration of 0.1%. DMSO at 0.1% was used as a vehicle control. Test compounds were incubated with cultures for 1 hour at 37° C., 5% CO2, followed by the addition of pre-warmed media containing IFNγ (R&D Systems) or IL-27 (R&D Systems) at a final concentration at 100 ng/ml. Tissue cultures were maintained for 8 days. Media was replaced every 2 days with fresh media containing compounds and IFNγ or IL-27. On Day 8, tissue cultures and supernatants were collected for analysis. Supernatant samples were assayed for CXCL10 (IP-10) and CXCL9 (MIG) using luminex analysis (EMD Millipore). Data is expressed as % Inhibition +/−standard deviation (±STDV). Percent inhibition was determined by compound inhibitory potency against IFNγ or IL-27 induced CXCL10 or CXCL9 secretion compared to vehicle treated cells. Data is the average from 3 or 4 donors. Compound 1 was able to inhibit IFNγ induced CXCL10 secretion by 99%±2.0 (at 10 μM), 71%±19 (at […]) and 17%±12 (at 0.1 μM) when compared to vehicle control. Compound 1 was able to inhibit IFNγ induced CXCL9 secretion by 100%±0.3 (at 10 μM), 99%±0.9 (at 1 μM) and 74%±17 (at 0.1 μM) when compared to vehicle. […] Compound 1 was able to inhibit IL-27 induced CXCL9 secretion by 100%±0 (at 10 μM), 95%±3.7 (at 1 μM) and 75%±3.5 (at 0.1 μM) when compared to vehicle control.

[3] = molecular target: T1, JAK1 (Homo sapiens, UniProt P23458); test: Assay 1: LanthaScreen biochemical JAK kinase assay, JAK1; conditions: converted from pIC50 by Cheng-Prusoff; ATP at Km 25 μM; read-out: JAK 1 pKi (converted)
T1 construct: GST; purchased Life Technologies
T1 sequence (P23458 whole entry): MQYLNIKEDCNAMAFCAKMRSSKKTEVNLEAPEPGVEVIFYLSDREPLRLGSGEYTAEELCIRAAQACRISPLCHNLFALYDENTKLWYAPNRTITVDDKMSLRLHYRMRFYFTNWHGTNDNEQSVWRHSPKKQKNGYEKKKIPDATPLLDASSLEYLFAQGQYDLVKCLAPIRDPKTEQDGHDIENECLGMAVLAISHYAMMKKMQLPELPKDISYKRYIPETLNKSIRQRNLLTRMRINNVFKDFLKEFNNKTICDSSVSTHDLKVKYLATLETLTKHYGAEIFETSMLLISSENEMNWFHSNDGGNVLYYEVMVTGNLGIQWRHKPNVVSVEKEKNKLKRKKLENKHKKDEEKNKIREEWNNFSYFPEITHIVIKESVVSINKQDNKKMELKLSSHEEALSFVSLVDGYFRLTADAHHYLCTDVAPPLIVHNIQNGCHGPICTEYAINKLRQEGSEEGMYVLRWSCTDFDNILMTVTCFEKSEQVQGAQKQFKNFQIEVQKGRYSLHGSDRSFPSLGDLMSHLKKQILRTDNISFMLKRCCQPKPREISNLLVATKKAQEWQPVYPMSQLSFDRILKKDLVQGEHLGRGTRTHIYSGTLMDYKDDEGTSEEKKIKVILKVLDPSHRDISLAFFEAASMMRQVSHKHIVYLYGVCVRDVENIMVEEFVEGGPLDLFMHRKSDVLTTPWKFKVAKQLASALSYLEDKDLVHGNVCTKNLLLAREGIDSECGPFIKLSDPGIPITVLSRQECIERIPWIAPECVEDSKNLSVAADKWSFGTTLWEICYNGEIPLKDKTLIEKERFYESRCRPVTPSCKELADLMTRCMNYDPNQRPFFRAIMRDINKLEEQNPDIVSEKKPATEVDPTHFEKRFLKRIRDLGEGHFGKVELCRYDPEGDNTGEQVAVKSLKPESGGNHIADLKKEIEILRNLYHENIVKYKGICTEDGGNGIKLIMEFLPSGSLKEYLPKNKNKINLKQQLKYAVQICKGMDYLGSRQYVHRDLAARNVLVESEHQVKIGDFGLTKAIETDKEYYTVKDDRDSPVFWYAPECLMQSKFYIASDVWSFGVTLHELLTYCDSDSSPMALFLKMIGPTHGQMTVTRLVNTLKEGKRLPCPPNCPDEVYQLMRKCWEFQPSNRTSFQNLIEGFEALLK
Procedure: A panel of four LanthaScreen JAK biochemical assays (JAK1, 2, 3 and Tyk2) were carried in a common kinase reaction buffer (50 mM HEPES, pH 7.5, 0.01% Brij-35, 10 mM MgCl2, and 1 mM EGTA). Recombinant GST-tagged JAK enzymes and a GFP-tagged STAT1 peptide substrate were obtained from Life Technologies.
The serially diluted compound was pre-incubated with each of the four JAK enzymes and the substrate in white 384-well microplates (Corning) at ambient temperature for lh. ATP was subsequently added to initiate the kinase reactions in 10 μL total volume, with 1% DMSO. […] The plates were allowed to incubate at ambient temperature for lh before being read on the EnVision reader (Perkin Elmer). Emission ratio signals (520 nm/495 nm) were recorded and utilized to calculate the percent inhibition values based on DMSO and background controls.
For dose-response analysis, percent inhibition data were plotted vs. compound concentrations, and IC50 values were determined from a 4-parameter robust fit model with the Prism software (GraphPad Software). Results were expressed as pIC50 (negative logarithm of IC50) and subsequently converted to pK1 (negative logarithm of dissociation constant, Ki) using the Cheng-Prusoff equation.

## CCc1cc(O)c(F)cc1-c1ccc2c(-c3nc4c([nH]3)CCN(C3CCN(C)CC3)C4)n[nH]c2c1 [Compound 1, 5-ethyl-2-fluoro-4-(3-(5-(1-methylpiperidin-4-yl)-4,5,6,7-tetrahydro-1H-imidazo[4,5-c]pyridin-2-yl)-1H-indazol-6-yl)phenol]
[1]
  inhibition of STAT6 phosphorylation in lung: about 60%
[2]; at 0.1 μM
  inhibition at 0.1 µM: 73%
[2]; at 1 μM
  inhibition at 1 µM: 98%
[2]; at 10 μM
  inhibition at 10 µM: 108%
[3]
  Ki: 63.1 pM

Source: patent publication US10251874B2, “Crystalline forms of a JAK inhibitor compound” (THERAVANCE BIOPHARMA R&D IP, LLC, priority 2017, dated 2019)
